Experiment [1] deals with washed platelets from healthy volunteers. The experiment is described as follows: Aspirin study: GSAO+/P-selectin+ necrotic platelets ex vivo (flow cytometry). The class given is cell-based, human. The following applies: 100 mg aspirin daily for 7 days; thrombin and collagen. On the procedure:
FIG. 8. Aspirin ingestion sensitizes platelets to cyclophilin D inhibition in human subjects. Platelets from healthy volunteers were examined before and after 7 days of aspirin ingestion. Washed platelets were activated with thrombin (0.1 units/mL) and collagen (5 μg/mL) and GSAO+/P-selectin+ necrotic platelets measured by flow cytometry (part A) and procoagulant potential assessed using the Calibrated Automated Thrombogram (part B).
The standard pharmacological means for prevention of cardiovascular events is by inhibiting platelet cyclooxygenase-1 with aspirin, which suppresses platelet activation.
This study was approved by the University of New South Wales Human Research Ethics Advisory Committee (HC132219), conducted according to the Declaration of Helsinki and all volunteers gave written informed consent. Five healthy volunteers aged 25-45 years were recruited. Prior to starting the study, all volunteers abstained from aspirin or non-steroidal anti-inflammatory drugs (NSAIDS), or other anti-platelet therapies for 14 days. Volunteers received 100 mg enteric coated aspirin daily for 7 days. Blood was collected and washed platelets assessed at baseline, day 0, and again at day 7 of treatment.

Experiment [2] has as its system platelets of coronary artery disease patients. The experiment is described as follows: Whole blood platelet necrosis assay in coronary artery disease patients. The following applies: thrombin or thrombin/collagen stimulation. The class given is in vivo, human. The text has this: The whole blood platelet necrosis assay was validated by measuring formation of procoagulant platelets in response to well-known agonist in humans and mice. The assay was able to reproducibly measure platelet propensity to necrosis in healthy human volunteers as well as in patients with ischaemic heart disease within a clinical setting.
Experiments using genetically modified mice indicate that formation of procoagulant platelets is dependent on the cyclophilin D necrosis pathway, but independent of the BclXL apoptosis pathway. In healthy volunteers, the strong platelet agonists, thrombin and collagen, induce formation of procoagulant platelets via a mechanism that is largely independent of protease activated receptors. Patients with coronary artery disease have a heightened procoagulant platelet potential and are sensitised to thrombin and ADP stimulation. The procoagulant platelet potential in these patients is insensitive to aspirin, which targets platelet aggregation, but modified by P2Y12 antagonists.
To examine the effect of CAD on procoagulant platelet potential, non-heparinized bloods from patients with exposure to either aspirin only or no antiplatelet medications within 7 days of the procedure were assayed. […] There were no statistically significant differences between the groups in the absence of agonist stimulation.

Experiment [3] deals with agonist stimulated platelets. Kind of experiment: Platelet procoagulant potential, Calibrated Automated Thrombogram. The class given is cell-based, human. As to conditions: 100 mg aspirin daily for 7 days; thrombin and collagen. The protocol: FIG. 5. […] A. Washed human platelets were untreated or stimulated with thrombin (0.1 units/mL) and collagen (5 μg/mL) or the mitochondrial membrane disrupter CCCP (4 μM). Mitochondrial transmembrane potential was measured using the cationic dye, JC-1. The ratio of distribution of JC-1 between the mitochondria (red fluorescence) and cytosol (green fluorescence) reflects mitochondrial transmembrane potential. […] B-C. […] E. Washed human platelets were preincubated with CaCl2 for 15 min and then untreated or stimulated with thrombin (0.1 units/mL) and collagen (5 μg/mL).
FIG. 8. […] Platelets from healthy volunteers were examined before and after 7 days of aspirin ingestion. Washed platelets were activated with thrombin (0.1 units/mL) and collagen (5 μg/mL) and GSAO+/P-selectin+ necrotic platelets measured by flow cytometry (part A) and procoagulant potential assessed using the Calibrated Automated Thrombogram (part B).
Thrombin generation capacity of agonist stimulated platelets was measured using the Calibrated Automated Thrombogram as described (Hemker et al., 2003) using the Fluorskan Ascent (Thermo Scientific). Agonist stimulated platelets were washed in phosphate-buffered saline and resuspended into the donor's own platelet poor plasma at 5×10^4/μL and recombinant tissue factor ([…], Innovin, Dade Behring) was added. Assays were performed in triplicate.

Results on 1 molecule are retold here after patent US10828275B2, “Selective targeting of procoagulant platelets” (NewSouth Innovations Pty Limited, priority 2014, dated 2020).

Structures are written as SMILES. “Also recorded” adds a separate entry of the source.

`CC(=O)Oc1ccccc1C(=O)O` [aspirin]: in experiment [1], the “change in GSAO+/P-selectin+ necrotic potential of activated platelets” value is reported as “no change”. Besides, in experiment [2], the “effect on necrotic / procoagulant platelet potential in patients” value is on record as “did not affect; also recorded: insensitive”. Besides, the “change in procoagulant potential of activated platelets” value in experiment [3] is given as “no change”.
